Experimental data published in publication PMC7038160, “Design, Synthesis, and Evaluation of Acetylcholinesterase and Butyrylcholinesterase Dual-Target Inhibitors against Alzheimer’s Diseases” (Molecules, 2020).
“Also recorded” adds a separate entry of the source.

How the values were obtained:
[1] = molecular target: T1, AChE from Electrophorus electricus (eeAChE) (Electrophorus electricus, UniProt O42275); assay: biochemical; format: biochemical; conditions: for SI (selectivity index = AChE IC50/BChE IC50): eeAChE IC50 / eqBChE IC50; for IC50 / AChE IR (inhibitory rate): eeAChE from electric eel; for IC50: mean ± SEM of triplicate independent experiments; for AChE IR (inhibitory rate): compounds under 100 μM
T1 construct: purchased Sigma-Aldrich
T1 sequence (O42275 24-633): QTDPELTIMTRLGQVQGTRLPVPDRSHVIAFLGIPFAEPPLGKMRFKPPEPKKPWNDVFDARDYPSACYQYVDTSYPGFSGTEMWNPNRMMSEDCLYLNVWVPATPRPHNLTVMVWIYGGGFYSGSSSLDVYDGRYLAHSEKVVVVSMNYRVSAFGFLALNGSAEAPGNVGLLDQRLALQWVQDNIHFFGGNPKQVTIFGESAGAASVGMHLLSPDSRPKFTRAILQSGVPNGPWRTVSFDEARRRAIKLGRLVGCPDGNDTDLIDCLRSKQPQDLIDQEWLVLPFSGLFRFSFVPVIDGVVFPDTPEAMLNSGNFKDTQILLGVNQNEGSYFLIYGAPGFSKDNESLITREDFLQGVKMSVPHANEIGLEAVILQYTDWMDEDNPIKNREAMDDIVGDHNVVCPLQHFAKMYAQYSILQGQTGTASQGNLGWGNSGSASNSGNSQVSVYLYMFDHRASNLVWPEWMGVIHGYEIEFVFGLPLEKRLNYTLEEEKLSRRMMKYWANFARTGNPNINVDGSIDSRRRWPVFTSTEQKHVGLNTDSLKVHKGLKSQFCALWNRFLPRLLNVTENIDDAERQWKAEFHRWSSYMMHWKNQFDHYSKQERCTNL
Experimental: (§1) According to the method described by Ellman, the data were expressed by IC50 values.
(§2) The inhibitory activity of the target compound against AChE (from Electrophorus electricus (eeAChE), Sigma-Aldrich, Munich, Germany) and horse serum BChE (eqBChE, Sigma-Aldrich, Munich, Germany) were measured by Ellman’s method. In 96-well plates, a mixture of phosphate buffer (0.1 M, pH 8.0, […]), 5,5′-dithiobis-2-nitrobenzoic acid (DTNB, 60 μL), acetylcholinesterase or butyrylcholinesterase (20 μL, 5 IU/mL) and different concentrations of the compounds solution (30 μL) was pre-incubated for 5 min and then substrates (acetylthiocholine iodide or butyrylthiocholine iodide, 20 μL) were added.
(§3) The measurement of each concentration for each compound was detected in triplicate. GraphPad Prism 6.0 (GraphPad Software, Inc., La Jolla, CA, USA) was used for data processing. The inhibition curve was fitted by plotting the logarithm of the concentration of the tested compounds with the percentage of enzyme activity (reference to 100%). The (IC50) value was calculated according to the inhibition curve and the data were shown in the layout of mean ± SEM by GraphPad Prism 6.0.

[2] = molecular target: T2, horse serum BChE (eqBChE) (Equus caballus, UniProt P81908); assay: biochemical; format: biochemical; conditions: eqBChE from horse serum; for IC50: mean ± SEM of triplicate independent experiments; for BChE IR (inhibitory rate): compounds under 100 μM
T2 construct: horse serum BChE (eqBChE, Sigma-Aldrich, Munich, Germany); purchased Sigma-Aldrich; host or cells: horse serum
T2 sequence (P81908 whole entry): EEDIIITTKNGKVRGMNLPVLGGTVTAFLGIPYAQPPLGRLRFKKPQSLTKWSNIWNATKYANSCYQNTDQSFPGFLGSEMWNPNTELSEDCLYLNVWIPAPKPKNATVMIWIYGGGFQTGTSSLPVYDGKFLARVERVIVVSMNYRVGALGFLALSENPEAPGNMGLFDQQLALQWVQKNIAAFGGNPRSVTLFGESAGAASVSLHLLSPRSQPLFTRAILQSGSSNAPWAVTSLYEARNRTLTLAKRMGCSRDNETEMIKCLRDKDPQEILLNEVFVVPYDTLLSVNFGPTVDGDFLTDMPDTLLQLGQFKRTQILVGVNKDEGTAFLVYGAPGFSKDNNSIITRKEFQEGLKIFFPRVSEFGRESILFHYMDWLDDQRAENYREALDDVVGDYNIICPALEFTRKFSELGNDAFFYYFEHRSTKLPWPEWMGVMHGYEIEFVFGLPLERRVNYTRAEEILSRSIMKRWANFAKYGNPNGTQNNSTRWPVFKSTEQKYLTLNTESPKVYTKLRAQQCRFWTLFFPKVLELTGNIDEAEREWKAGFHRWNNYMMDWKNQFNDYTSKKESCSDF
Experimental: as §1, §2, §3

PC12 cells = assay: Cytotoxicity in PC12 cells (MTT assay); format: cell-based; conditions: 10, 20, 30 and 50 μM, 24 h
Experimental: We focused on the cytotoxicity of the synthetic compounds. The reason for using PC12 is that our compounds act on the central nervous system, so we need to find out whether the compound has a toxic effect on normal nerve cells. Compounds 6b, 6c, 6d, 10s, 8i, and 10v were selected as representative compounds to assess their potential cytotoxic effects.
Pheochromocytoma-derived cell line (PC12 cells) were grown in Dulbecco’s Modified Eagle Medium (DMEM) supplemented with 10% FBS at 37 °C in a humidified atmosphere containing 5% CO2. To carry out the experiment, cells (6 × 10^3 cells/well) were seeded in 96-well plate in complete medium. […]

eqBChE [3] = molecular target: T3, eqBChE (Equus caballus, UniProt P81908); assay: Kinetics of BChE inhibition (Lineweaver–Burk plots); format: biochemical; conditions: substrate 90-904 μM
T3 construct: horse serum BChE (eqBChE, Sigma-Aldrich, Munich, Germany); purchased Sigma-Aldrich; host or cells: horse serum
T3 sequence (P81908 whole entry): as above
Experimental: (§4) To determine the kinetic types of AChE and BChE inhibition, compounds 8i and 10s were selected for kinetic studies. In each case, the kinetic types of enzyme inhibition were obtained by the modified Ellman’s method and the Lineweaver–Burk secondary plots. […] According to the result of molecular docking study.
(§5) Kinetic studies were performed in the same manner as the determination of ChEs inhibition, with substrate (ATC/BTC) concentrations of 90, 150, 226, 452 and 904 μM. The concentration of compound 8i was set to 0, 0.25, 0.5, 0.75, 1 μM, and the concentration of compound 10s was set to 1, 2.5, 5, 7.5, 10 μM. The enzymatic reaction was extended to 7 min for eeAChE and eqBChE before the determination of the absorption. The Vmax and Km values of Michaelis-Menten kinetics were calculated by nonlinear regression from the substrate-velocity curves using GraphPad Prism 6.0. Linear regression was used to fit the Lineweaver–Burk plot.

eeAChE = molecular target: T4, eeAChE (Electrophorus electricus, UniProt O42275); assay: Kinetics of AChE inhibition (Lineweaver–Burk plots); format: biochemical, Electrophorus electricus (electric eel); conditions: substrate 90-904 μM
T4 construct: purchased Sigma-Aldrich
T4 sequence (O42275 24-633): as the sequence (O42275 24-633) above
Experimental: as §4, §5

eqBChE [4] = molecular target: T3, eqBChE; set-up: method as in earlier work; conditions: lead compound from previous virtual screening; cited from earlier work

Structure (SMILES) | SI (selectivity index = AChE IC50/BChE IC50) [1] | IC50 [1] | IC50 [2] | BChE IR (inhibitory rate) [2] | AChE IR (inhibitory rate) [1] | further results
O=C(NCC1CCN(Cc2ccccc2)CC1)c1ccc2[nH]ccc2c1 [Compound 6a, N-((1-Benzylpiperidin-4-yl)methyl)-1H-indole-5-carboxamide] | 1.66 | 52.1 ± 30.2 µM | 31.4 ± 15.6 µM | – | – | –
O=C(NCC1CCN(Cc2ccccc2Cl)CC1)c1ccc2[nH]ccc2c1 [Compound 6b, N-((1-(2-Chlorobenzyl)piperidin-4-yl)methyl)-1H-Indole-5-carboxamide] | 1.57 | 15 ± 6.17 µM | 9.56 ± 4.52 µM | – | – | –
O=C(NCC1CCN(Cc2ccccc2)CC1)c1ccc2[nH]ncc2c1 [Compound 6c, N-((1-Benzylpiperidin-4-yl)methyl)-1H-indazole-5-carboxamide] | 0.25 | 9.06 ± 2.57 µM | 36.6 ± 17.5 µM | – | – | cytotoxicity compared with Tacrine (PC12 cells): less toxic than Tacrine
O=C(NCC1CCN(Cc2ccccc2)CC1)c1ccc2[nH]cnc2c1 [Compound 6d, N-((1-Benzylpiperidin-4-yl)methyl)-1H-benzo[d]imidazole-5-carboxamide] | 2.23 | 4.8 ± 0.68 µM | 2.15 ± 0.63 µM | – | – | cytotoxicity compared with Tacrine (PC12 cells): less toxic than Tacrine
O=C(NCC1CCN(Cc2ccc(C(F)(F)F)cc2)CC1)c1ccc2[nH]cnc2c1 [Compound 6e, N-((1-(4-(Trifluoromethyl)benzyl)piperidin-4-yl)methyl)-1H-benzo[d]imidazole-5-carboxamide] | – | 48.5 ± 36.2 µM | – | 39.88% | – | –
COc1ccc(CN2CCC(CNC(=O)c3ccc4[nH]nnc4c3)CC2)cc1 [Compound 6f, N-((1-(4-Methoxybenzyl)piperidin-4-yl)methyl)-1H-benzo[d][1,2,3]triazole-5-carboxamide] | – | – | – | 49.63% | 43.07% | –
O=C(NCC1CCN(Cc2ccccc2Cl)CC1)c1ccc2[nH]nnc2c1 [Compound 6g, N-((1-(2-Chlorobenzyl)piperidin-4-yl)methyl)-1H-benzo[d][1,2,3]triazole-5-carboxamide] | 0.58 | 29.2 ± 16.4 µM | 49.9 ± 37.3 µM | – | – | –
O=C(NCC1CCN(Cc2ccc(C(F)(F)F)cc2)CC1)c1ccc2[nH]nnc2c1 [Compound 6h, N-((1-(4-(Trifluoromethyl)benzyl)piperidin-4-yl)methyl)-1H-benzo[d][1,2,3]triazole-5-carboxamide] | – | 40.2 ± 27.6 µM | – | 30.71% | – | –
O=C1Cc2cc(C(=O)NCC3CCN(Cc4ccccc4)CC3)ccc2N1 [Compound 8i, N-((1-Benzylpiperidin-4-yl)methyl)-2-Oxoindoline-5-carboxamide] | 1.39 | 0.39 ± 0.04 µM | 0.28 ± 0.1 µM | – | – | kinetic type of BChE inhibition (eqBChE [3]): mixed-type inhibition; kinetic type of AChE inhibition (eeAChE): mixed-type inhibition; cytotoxicity compared with Tacrine (PC12 cells): lower than that of Tacrine; also recorded: less toxic than Tacrine; also recorded: lowest toxicity
O=C1Cc2cc(C(=O)NCC3CCN(Cc4ccccc4Cl)CC3)ccc2N1 [Compound 8j, N-((1-(2-Chlorobenzyl)piperidin-4-yl)methyl)-2-Oxoindoline-5-carboxamide] | – | – | – | 22.87% | 14.69% | –
COc1ccc(CN2CCC(CNC(=O)c3ccc4c(c3)CC(=O)N4)CC2)cc1 [Compound 8k, N-((1-(4-Methoxybenzyl)piperidin-4-yl)methyl)-2-Oxoindoline-5-carboxamide] | – | – | – | 22.26% | no | –
O=C1Cc2cc(C(=O)NCC3CCN(Cc4ccc(C(F)(F)F)cc4)CC3)ccc2N1 [Compound 8l, 2-Oxo-N-((1-(4-(trifluoromethyl)benzyl)piperidin-4-yl)methyl)indoline-5-carboxamide] | – | 21.5 ± 9.37 µM | – | 35.20% | – | –
Cc1ccc(S(=O)(=O)NCC2CCN(Cc3ccccc3)CC2)cc1 [Compound 10s, N-((1-Benzylpiperidin-4-yl)methyl)-4-methylbenzenesulfonamide] | 1.03 | 4.24 ± 2.44 µM | 4.1 ± 3.74 µM | – | – | kinetic type of BChE inhibition (eqBChE [3]): same inhibition type; kinetic type of AChE inhibition (eeAChE): same inhibition type; cytotoxicity compared with Tacrine (PC12 cells): slightly more toxic than Tacrine
Cc1ccc(S(=O)(=O)NCC2CCN(Cc3ccccc3Cl)CC2)cc1 [Compound 10t, N-((1-(2-Chlorobenzyl)piperidin-4-yl)methyl)-4-methylbenzenesulfonamide] | 2.74 | 5.5 ± 2.56 µM | 2.01 ± 0.7 µM | – | – | –
COc1ccc(CN2CCC(CNS(=O)(=O)c3ccc(C)cc3)CC2)cc1 [Compound 10u, N-((1-(4-Methoxybenzyl)piperidin-4-yl)methyl)-4-methylbenzenesulfonamide] | – | – | – | 18.31% | 11.61% | –
Cc1ccc(S(=O)(=O)NCC2CCN(Cc3ccc(C(F)(F)F)cc3)CC2)cc1 [Compound 10v, 4-Methyl-N-((1-(4-(trifluoromethyl)benzyl)piperidin-4-yl)methyl)benzenesulfonamide] | 1.01 | – | 7.14 ± 5.27 µM | – | – | –
COc1ccc(CN2CCC(CNC(=O)c3ccc4[nH]ncc4c3)CC2)cc1 [Compound 11b] | – | – | – | – | 48.57% | –
COc1ccc(CN2CCC(CNC(=O)c3ccc4[nH]cnc4c3)CC2)cc1 [Compound 11d] | – | – | – | – | 18.81% | –
O=C(CC1CCN(CCc2ccccc2)CC1)Nc1ccc2[nH]ccc2c1 [Compound 16a, N-(1H-Indol-5-yl)-2-(1-phenethylpiperidin-4-yl)acetamide] | – | – | – | 23.49% | 8.61% | –
O=C(CC1CCN(CCc2ccccc2Cl)CC1)Nc1ccc2[nH]ccc2c1 [Compound 16b, 2-(1-(2-Chlorophenethyl)piperidin-4-yl)-N-(1H-indol-5-yl)acetamide] | – | – | – | 31.21% | 8.95% | –
O=C(CC1CCN(CCc2ccccc2)CC1)Nc1ccc2[nH]cnc2c1 [Compound 16c, N-(1H-Benzo[d]imidazol-5-yl)-2-(1-phenethylpiperidin-4-yl)acetamide] | – | – | – | 30.59% | no inhibitory activity and no | –
O=C(CC1CCN(CCc2ccccc2Cl)CC1)Nc1ccc2[nH]cnc2c1 [Compound 16d, N-(1H-Benzo[d]imidazol-5-yl)-2-(1-(2-chlorophenethyl)piperidin-4-yl)acetamide] | – | – | – | 38.04% | 8.55% | –
Cn1c(=O)n(C)c2cc(S(=O)(=O)NCC3CCN(Cc4ccc(F)cc4)CC3)ccc21 [Compound G801-0274] | – | – | – | – | – | IC50 (eqBChE [4]): 0.03 µM
